Experimental data as given in ChEMBL document CHEMBL1148279, “Effects of bisphosphonates on the growth of Entamoeba histolytica and Plasmodium species in vitro and in vivo” (J Med Chem, 2004).

Legend:
[1] = in vitro; details: human, KB cells (nasopharyngeal carcinoma)
Description: Toxicity evaluated against human nasopharyngeal carcinoma KB cell line

[2] = tested on: Entamoeba histolytica; assay: In vitro growth inhibition against Entamoeba histolytica; assay type: functional, organism-based
[3] = tested on: Plasmodium falciparum; assay: microbe, parasite or virus in culture
Description: In vitro growth inhibition against Plasmodium falciparum

[4] = Therapeutic index was expressed as ratio of LD50 for KB cell line to IC50 against Entamoeba histolytica; assay type: cell-based; details: human, KB cells; read-out: TI

| SMILES | CC50 [1] | IC50 [2] | IC50 [3] | selectivity ratio [4] |
| --- | --- | --- | --- | --- |
| O=P(O)(O)C(Nc1nccc2ccccc12)P(=O)(O)O | 673 µM | > 200 µM | 50.4 µM | – |
| O=P(O)(O)C(Nc1ccccn1)P(=O)(O)O | 465 µM | > 200 µM | > 200 µM | – |
| Cc1csc(NC(P(=O)(O)O)P(=O)(O)O)n1 | 150 µM | > 200 µM | > 200 µM | – |
| O=P(O)(O)C(O)(CCc1cccnc1)P(=O)(O)O | > 804 µM | > 200 µM | – | – |
| O=P(O)(O)C(CNc1ccncc1)P(=O)(O)O | 386 µM | > 200 µM | > 200 µM | – |
| O=P(O)(O)C(CNc1ccccn1)P(=O)(O)O | 144 µM | > 200 µM | 17 µM | – |
| CCCCCCCC(O)(P(=O)(O)O)P(=O)(O)O | 308 µM | 22.3 µM | 26.7 µM | – |
| NCCCCC(O)(P(=O)(O)O)P(=O)(O)O | 91 µM | > 200 µM | – | – |
| CC(C)(C)c1cc(NC(P(=O)(O)O)P(=O)(O)O)cc(C(C)(C)C)c1 | 634 µM | 19.2 µM | > 200 µM | 33 |
| O=P(O)(O)C(Nc1cccnc1)P(=O)(O)O | 782 µM | 60 µM | > 200 µM | 13 |
| O=P(O)(O)C(O)(Cc1c[nH]cn1)P(=O)(O)O | 41 µM | > 200 µM | – | – |
| CCOP(=O)(OCC)C(Nc1ncccc1C)P(=O)(OCC)OCC | > 790 µM | > 200 µM | – | – |
| O=P(O)(O)C(Nc1cccnc1Cl)P(=O)(O)O | > 963 µM | > 200 µM | > 200 µM | – |
| O=P(O)(O)C(Nc1nc2ccccc2s1)P(=O)(O)O | < 0.93 µM | – | > 200 µM | – |
| CCOP(=O)(OCC)C(Nc1cc(C)ccn1)P(=O)(OCC)OCC | 127 µM | > 200 µM | > 200 µM | – |
| O=P(O)(O)CC(c1cccnc1)P(=O)(O)O (centres undefined) | 1020 µM | > 200 µM | > 200 µM | – |
| Nc1ccc(CC(O)(P(=O)(O)O)P(=O)(O)O)cc1 | – | > 200 µM | – | – |
| O=P(O)(O)C(Nc1ccc(I)cn1)P(=O)(O)O | 466 µM | 39.5 µM | > 200 µM | 11.8 |
| CCn1c2ccccc2c2ccc(NC(P(=O)(O)O)P(=O)(O)O)cc21 | 710 µM | > 200 µM | 104 µM | – |
| O=P(O)(O)C(NCCCc1ccccc1)P(=O)(O)O | > 970 µM | 15.6 µM | > 200 µM | > 62.2 |
| CCCCCCCc1ccc(NC(P(=O)(O)O)P(=O)(O)O)cc1 | 211 µM | 36.2 µM | – | – |
| O=P(O)(O)C(O)(Cc1ccccn1)P(=O)(O)O | – | > 200 µM | – | – |
| CCCCOc1ccc(NC(P(=O)(O)O)P(=O)(O)O)cc1 | 210 µM | 3.98 µM | > 200 µM | 52.7 |
| O=P(O)(O)C(N1CCCCC1)P(=O)(O)O | > 1090 µM | > 200 µM | > 200 µM | – |

| SMILES | CC50 [1] | IC50 [2] | IC50 [3] | selectivity ratio [4] |
| --- | --- | --- | --- | --- |
| O=C(O)c1cn(C2CC2)c2cc(N3CCN(CC(P(=O)(O)O)P(=O)(O)O)CC3)c(F)cc2c1=O | > 568 µM | > 200 µM | > 200 µM | – |
| Cc1cc(C)nc(NC(P(=O)(O)O)P(=O)(O)O)c1 | 633 µM | 177 µM | > 200 µM | 3.58 |
| O=P(O)(O)C(Nc1ncccc1OCc1ccccc1)P(=O)(O)O | > 764 µM | > 200 µM | > 200 µM | – |
| CCCC(O)(P(=O)(O)O)P(=O)(O)O | > 967 µM | > 200 µM | – | – |
| O=P(O)(O)CC(c1ccncc1)P(=O)(O)O (centres undefined) | > 1120 µM | > 200 µM | > 200 µM | – |
| O=P(O)(O)CC(c1ccccn1)P(=O)(O)O (centres undefined) | < 1.1 µM | > 200 µM | > 200 µM | – |
| O=P(O)(O)C(Nc1ccc(Cl)cn1)P(=O)(O)O | > 991 µM | 87 µM | 10.6 µM | – |
| CCc1cccc(NC(P(=O)(O)O)P(=O)(O)O)c1 | > 1020 µM | > 200 µM | > 200 µM | – |
| Cc1cccnc1NC(P(=O)(O)O)P(=O)(O)O | – | > 200 µM | – | – |
| CC(N)CC(O)(P(=O)(O)O)P(=O)(O)O (centres undefined) | > 977 µM | > 200 µM | – | – |
| O=P(O)(O)C(O)(CCNCCCCc1ccccc1)P(=O)(O)O | > 727 µM | 20.5 µM | > 200 µM | > 35.5 |
| Cc1ccnc(NC(P(=O)(O)O)P(=O)(O)O)c1 | – | > 200 µM | > 200 µM | – |
| CCCCCCCCCCCCCCCCCC(O)(P(=O)(O)O)P(=O)(O)O | < 0.65 µM | > 200 µM | > 200 µM | – |
| O=P(O)(O)C(Nc1c(F)c(F)c(F)c(F)c1F)P(=O)(O)O | > 779 µM | > 200 µM | > 200 µM | – |
| O=P(O)(O)C(O)(Cc1ccncc1)P(=O)(O)O | 171 µM | > 200 µM | – | – |
| O=P(O)(O)C(Nc1ccc2c(c1)CCC2)P(=O)(O)O | > 976 µM | > 200 µM | > 200 µM | – |
| Cc1cccc(NC(P(=O)(O)O)P(=O)(O)O)n1 | 18.6 µM | 64 µM | > 200 µM | – |
| CCC(C)CNC(P(=O)(O)O)P(=O)(O)O (centres undefined) | 394 µM | 135 µM | > 200 µM | 2.92 |
| O=P(O)(O)C(N1CCc2ccccc2C1)P(=O)(O)O | > 922 µM | 71 µM | – | > 13 |
| O=P(O)(O)C(Nc1ccc(Cl)nc1)P(=O)(O)O | > 992 µM | 21.7 µM | > 200 µM | > 45.7 |
| O=P(O)(O)C(N1CCC(O)CC1)P(=O)(O)O | > 1010 µM | > 200 µM | > 200 µM | – |
| O=P(O)(O)C(Nc1cc(Cl)cc(Cl)c1)P(=O)(O)O [(3,5-DICHLOROPHENYLAMINO)METHYLENEDIPHOSPHONIC ACID] | 314 µM | > 200 µM | > 200 µM | – |
| O=P(O)(O)C(NCCc1ccc(O)cc1)P(=O)(O)O [(4-HYDROXYPHENETHYLAMINO)METHYLENEDIPHOSPHONIC ACID] | 99.8 µM | > 200 µM | > 200 µM | – |
| CCCCN(CC)C(P(=O)(O)O)P(=O)(O)O [(BUTYL(ETHYL)AMINO)METHYLENEDIPHOSPHONIC ACID] | > 1060 µM | 47.3 µM | > 200 µM | > 22.3 |

| SMILES | CC50 [1] | IC50 [2] | IC50 [3] | selectivity ratio [4] |
| --- | --- | --- | --- | --- |
| CCCCNC(P(=O)(O)O)P(=O)(O)O [(BUTYLAMINO)METHYLENEDIPHOSPHONIC ACID] | 212 µM | > 200 µM | > 200 µM | – |
| O=P(O)(O)C(NC1CCC1)P(=O)(O)O [(CYCLOBUTYLAMINO)METHYLENEDIPHOSPHONIC ACID] | 260 µM | > 200 µM | > 200 µM | – |
| O=P(O)(O)C(NC1CCCCC1)P(=O)(O)O [(CYCLOHEXYLAMINO)METHYLENEDIPHOSPHONIC ACID] | – | – | > 200 µM | – |
| O=P(O)(O)C(NC1CCCCCCC1)P(=O)(O)O [(CYCLOOCTYLAMINO)METHYLENEDIPHOSPHONIC ACID] | 354 µM | 15.5 µM | > 200 µM | 22.9 |
| O=P(O)(O)C(NC1CCCC1)P(=O)(O)O [(CYCLOPENTYLAMINO)METHYLENEDIPHOSPHONIC ACID] | 629 µM | 35.9 µM | > 200 µM | 17.5 |
| O=P(O)(O)C(NC1CC1)P(=O)(O)O [(CYCLOPROPYLAMINO)METHYLENEDIPHOSPHONIC ACID] | 246 µM | 113 µM | > 200 µM | 2.18 |
| O=P(O)(O)C(N(C1CCCCC1)C1CCCCC1)P(=O)(O)O [(DICYCLOHEXYLAMINO)METHYLENEDIPHOSPHONIC ACID] | > 844 µM | > 200 µM | > 200 µM | – |
| CC(C)N(C(C)C)C(P(=O)(O)O)P(=O)(O)O [(DIISOPROPYLAMINO)METHYLENEDIPHOSPHONIC ACID] | 852 µM | 194 µM | > 200 µM | 4.39 |
| CCCN(CCC)C(P(=O)(O)O)P(=O)(O)O [(DIPROPYLAMINO)METHYLENEDIPHOSPHONIC ACID] | 322 µM | > 200 µM | > 200 µM | – |
| CC(C)CNC(P(=O)(O)O)P(=O)(O)O [(ISOBUTYLAMINO)METHYLENEDIPHOSPHONIC ACID] | 50.5 µM | > 200 µM | > 200 µM | – |
| CCCNC(P(=O)(O)O)P(=O)(O)O [(PROPYLAMINO)METHYLENEDIPHOSPHONIC ACID] | 499 µM | > 200 µM | > 200 µM | – |
| NCCCC(O)(P(=O)(O)O)P(=O)(O)O [ALENDRONIC ACID] | – | > 200 µM | – | – |
| O=P(O)(O)C(O)(C1CCC1)P(=O)(O)O [CYCLOBUTYL(HYDROXY)METHYLENEDIPHOSPHONIC ACID] | > 1220 µM | > 200 µM | > 200 µM | – |
| O=P(O)(O)C(O)(C1CCCCC1)P(=O)(O)O [CYCLOHEXYL(HYDROXY)METHYLENEDIPHOSPHONIC ACID] | 1090 µM | > 200 µM | > 200 µM | – |
| O=P(O)(O)C(O)(C1CC1)P(=O)(O)O [CYCLOPROPYL(HYDROXY)METHYLENEDIPHOSPHONIC ACID] | > 1240 µM | > 200 µM | > 200 µM | – |
| O=P(O)(O)C(NC1CCCCCC1)P(=O)(O)O [INCADRONIC ACID] | 166 µM | > 200 µM | > 200 µM | – |
| Cc1ncc([N+](=O)[O-])n1CCO [METRONIDAZOLE] | – | 3.2 µM | – | – |
| O=P(O)(O)C(N1CCCCCC1)P(=O)(O)O [N-(HEXAMETHYLENEIMINO)METHYLENEBISPHOSPHONIC ACID] | > 1100 µM | > 200 µM | > 200 µM | – |
| NCCCCCC(O)(P(=O)(O)O)P(=O)(O)O [NERIDRONIC ACID] | – | > 200 µM | – | – |
| CN(C)CCC(O)(P(=O)(O)O)P(=O)(O)O [OLPADRONIC ACID] | > 1050 µM | > 200 µM | – | – |
| O=P(O)(O)C(N1CCSCC1)P(=O)(O)O [THIOMORPHOLINOMETHYLENEDIPHOSPHONIC ACID] | > 1120 µM | > 200 µM | > 200 µM | – |
| O=P(O)(O)C(O)(Cn1ccnc1)P(=O)(O)O [ZOLEDRONIC ACID] | 63.7 µM | 12 µM | 167 µM | – |
